Assay results from PubChem BioAssay AID463178 (University of Pittsburgh Molecular Library Screening Center, 2010).
Activity calls are given as the source filed them.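 The calls were made as follows: active = IC50 below a set limit in both duplicate runs and mean IC50 below a set limit; inconclusive = IC50 above a set limit in only one run; inactive = IC50 above a set limit in both runs and mean.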

Test system: Jurkat FADD-/- TNF-alpha necroptosis, CellTiter-Glo ATP, 24 h
Test: rescue of FADD-deficient Jurkat cells, IC50 – duplicate IC50, dose response (AID 463178)

| Compound | IC50 |
| --- | --- |
| O=C(CSCc1ccc([N+](=O)[O-])cc1)NC1CC2CCC1C2 (stereo unspecified) | 13.6 µM |
| COc1ccc(/C=C2\N=C(SC)NC2=O)cc1 | > 20 µM (inactive) |
| Brc1ccc(COn2ccnc2)cc1 | 6.31 µM |
| CC(=O)OC(C(=O)NC1CCCCC1)c1ccc(Cl)c(Cl)c1 (stereo unspecified) | > 20 µM (inactive) |
| CC(C)c1ccc(O)c(NC(=O)c2cncc(Br)c2)c1 | > 20 µM (inactive) |
| O=C1NC(Cc2c[nH]c3ccccc23)C(=O)N1CCOc1ccc(F)cc1 (stereo unspecified) | 10 µM |
| O=C(CSC(=S)N1CCOCC1)N1N=CCC1c1ccccc1 (stereo unspecified) | 9.41 µM |
| CC(=O)N(CC1CCCO1)c1nnc(-c2cnccn2)s1 (stereo unspecified) | 5.94 µM |
| O=C(Nc1ccc(Cl)cn1)C1COc2ccccc2O1 (stereo unspecified) | > 20 µM (inactive) |
| CC(NC(=O)c1cc(Br)ccc1Cl)c1ccccc1 (stereo unspecified) | > 20 µM (inactive) |
| O=[N+]([O-])c1ncn(Cc2c(Cl)cccc2Cl)n1 | 13.1 µM |
| Cc1ccc(CN2CCSc3sccc3C2=O)cc1 | 9.28 µM |
| COC(C(=O)Nc1ccc(F)c(F)c1)c1ccccc1 (stereo unspecified) | 1.52 µM |
| CN=C(Cc1ccccc1)C1=C(O)CC(C)(C)CC1=O | 4.76 µM |
| O=[N+]([O-])c1ncn(Cc2ccccc2Cl)n1 | 2.51 µM |
| COc1ccc(/C=N/Nc2ccccn2)cc1OC | > 20 µM (inactive) |
| C/C(Cl)=C/CN1C(=O)C2C3C=CC(C3)C2C1=O (stereo unspecified) | 6.41 µM |
| Cc1nn(Cc2c(F)cccc2Cl)c(C)c1[N+](=O)[O-] | > 20 µM (inactive) |
| Cc1csc(Nc2ccccc2)[n+]1-c1ccccc1 | > 20 µM (inactive) |
| O=C(Nc1ccc(Cl)c(Cl)c1)N1N=CCC1c1ccccc1 (stereo unspecified) | 11.8 µM |
| COC(C(=O)Nc1ccc(Br)cc1F)c1ccccc1 (stereo unspecified) | 10.7 µM |
| COc1ccc(-n2cnc3cc(NS(=O)(=O)c4ccccc4)ccc32)cc1 | > 20 µM (inactive) |
| O=C(COc1ccccc1Cl)NC(=O)NC1CCCC1 | 12.6 µM |
| Cc1ccc(NC(=O)C2COc3ccccc3O2)nc1 (stereo unspecified) | 10 µM |

| Compound | IC50 |
| --- | --- |
| COc1cc(/C=N/Nc2nc3ccccc3[nH]2)cc(Br)c1OCC(=O)N(C)C | > 20 µM (inactive) |
| Cc1cnc(NC(=O)C2(c3ccccc3)CC2)s1 | > 20 µM (inactive) |
| c1csc(Cc2nc3ccccc3[nH]2)c1 | 8.85 µM |
| O=[N+]([O-])c1ccc(Nc2ccc(F)cc2)nc1 | 14.6 µM |
| Cc1cc([N+](=O)[O-])nn1Cc1ccc(F)cc1 | 7.15 µM |
| CC(=O)Nc1ccc(/C=N/Nc2nc3ccccc3s2)cc1 | > 20 µM (inactive) |
| O=[N+]([O-])c1ccc(Nc2ccc(Cl)cc2)nc1 | > 20 µM (inactive) |
| O=C(C1=NNCC1c1ccccc1)C1CO1 (stereo unspecified) | 4.94 µM |
| O=C(Cc1c(F)cccc1Cl)Nc1ncc([N+](=O)[O-])s1 | > 20 µM (inactive) |
| O=C(Nc1ncc(Cc2ccccc2)s1)C1COc2ccccc2O1 (stereo unspecified) | > 20 µM (inactive) |
| COC(C(=O)Nc1ccccc1F)c1ccccc1 (stereo unspecified) | 4.25 µM |
| Clc1ccc(COn2ccnc2)cc1Cl | 1.97 µM |
| COC(C(=O)Nc1ccc(S(=O)(=O)N2CCCCC2)cc1)c1ccccc1 (stereo unspecified) | > 20 µM (inactive) |
| O=C(Nc1nccs1)c1ccc(S(=O)(=O)N2CCCCC2)cc1 | > 20 µM (inactive) |
| Cc1ccc(SCC(=O)N2N=CCC2c2ccccc2)cc1 (stereo unspecified) | 11.8 µM |
| COC(=O)c1ccn(Cc2ccccc2Cl)n1 | 0.881 µM |
| CCC(C)c1ccc(O)c(NC(=O)c2cncc(Br)c2)c1 (stereo unspecified) | > 20 µM (inactive) |
| O=C1c2ccsc2SCCN1Cc1ccccc1 | 6.07 µM |
| OC(c1ccccc1)c1nc2ccccc2s1 (stereo unspecified) | 14.6 µM |
| c1ccc(CSc2nnc(-c3ccco3)o2)cc1 | 17.3 µM |
| COc1ccc(/C=N/Nc2ccccn2)cc1O | 14.8 µM |
| O=C(CSCc1ccc([N+](=O)[O-])cc1)NC1CCCCCC1 | 10 µM |
| Fc1ccc(NC(=S)N2N=CCC2c2ccccc2)cc1 (stereo unspecified) | 3.38 µM |
| COc1ccc(/C=N/Nc2nc3ccccc3s2)cc1O | > 20 µM (inactive) |

| Compound | IC50 |
| --- | --- |
| Cc1ccc(C2CC(=O)NC(SCC(=O)Nc3nccs3)=C2C#N)cc1 (stereo unspecified) | > 20 µM (inactive) |
| Cc1ccc(CC(=O)Nc2ncc([N+](=O)[O-])s2)cc1 | > 20 µM (inactive) |
| O=C(Nc1ccccc1)N1N=CCC1c1ccccc1 (stereo unspecified) | 1.48 µM |
| COC(C(=O)Nc1cccc(F)c1)c1ccccc1 (stereo unspecified) | 6.43 µM |
| Cc1nn(Cc2ccccc2)c(N)c1C#N | 9.44 µM |
| Cc1csc(Nc2ccc(Cl)cc2)[n+]1-c1ccc(Cl)cc1 | > 20 µM (inactive) |
| O=C(Cn1cnc2ccc(Br)cc2c1=O)c1cccs1 | > 20 µM (inactive) |
| COc1ccc(NC(=S)N2N=CCC2c2ccccc2)cc1 (stereo unspecified) | 12.9 µM |
| C=C(C)CSc1nnc2n(Cc3ccccc3)c(=O)c3c4c(sc3n12)CCC4 | > 20 µM (inactive) |
| COCCNS(=O)(=O)c1ccc(SC)cc1 | 9.06 µM |
| Cc1ccc(Oc2ccccc2/C=C2\SC(=O)N(C)C2=O)cc1 | > 20 µM (inactive) |
| COc1ccc(-c2nc3c(-c4ccccc4)cnn3cc2C)cc1F | > 20 µM (inactive) |
| CC(=O)N(c1ccccc1)c1nnc(-c2cnc(C)cn2)s1 | 10.6 µM |
| O=C(NNc1c(Cl)cccc1Cl)C1CCC1 | 9.85 µM |
| Cc1ccc2[nH]c3c(c2c1)CCc1cn[nH]c1-3 | 1.14 µM |
| O=[N+]([O-])c1ccc(Nc2cccc(F)c2)nc1 | 19.6 µM |
| N#CCSc1nc2sc3c(c2c(=O)n1C1CCCCC1)CCCC3 | > 20 µM (inactive) |
| O=C(CN1CCN(C(c2ccccc2)c2ccccc2)CC1)N1N=CCC1c1ccccc1 (stereo unspecified) | > 20 µM (inactive) |
| O=S(=O)(Nc1ccccc1)c1ccc2c(c1)CCO2 | 9.75 µM |
| COc1ccc(-n2c(C)nn(CC3CC3)c2=O)cc1 | 5.12 µM |
| Cc1nnsc1C(=O)NCc1c(F)cccc1Cl | 7.64 µM |
| CC(Nc1nc(-c2ccc3c(c2)NC(=O)CO3)cs1)c1ccccc1 (stereo unspecified) | > 20 µM (inactive) |
| Cc1cc(N/N=C/c2ccncc2)nc2ccccc12 | > 20 µM (inactive) |
| Fc1ccc(C2=NNC(=NCc3ccccc3)SC2)cc1F | > 20 µM (inactive) |

| Compound | IC50 |
| --- | --- |
| O=C(OC(C(=O)Nc1ccc([N+](=O)[O-])cc1Br)c1ccccc1)c1ccccc1 (stereo unspecified) | > 20 µM (inactive) |
| O=C(CSc1ccc(Cl)cc1)N1N=CCC1c1ccccc1 (stereo unspecified) | 16.4 µM |
| O=S(=O)(c1cccc2cccnc12)N1CCN(c2ccc(F)cc2)CC1 | > 20 µM (inactive) |
| COc1ccc(C2CN=NC2C(=O)c2ccccc2)cc1 (stereo unspecified) | 16.4 µM |
| S=C(Nc1ccccc1)N1N=CCC1c1ccccc1 (stereo unspecified) | 7.65 µM |
| c1ccc(C2CC3CC4(CCCC4)N2O3)cc1 (stereo unspecified) | 3.81 µM |
| CN(CC1CCCO1)S(=O)(=O)c1ccc(C(=O)Nc2nccs2)cc1 (stereo unspecified) | 12.9 µM |
| O=C(Nc1cccc(Cl)c1)N1N=CCC1c1ccccc1 (stereo unspecified) | 1.28 µM |
| O=[N+]([O-])c1ccc(Nc2ccccc2F)nc1 | 15.5 µM |
| O=[N+]([O-])c1ccc(Nc2ccccc2)nc1 | 15.3 µM |
| O=C(O)c1ccc(/C=N/Nc2ccc(C(F)(F)F)cn2)cc1 | 6.32 µM |
| Clc1cccc(Cl)c1Cn1ccc(C2CC2)n1 | 4.75 µM |
| COc1ccc(-n2c(C)nc3sc4c(c3c2=O)CCC4)cc1 | 4.17 µM |
| CCn1c([N+](=O)[O-])nc2c1c(=O)[nH]c(=O)n2C | > 20 µM (inactive) |
| O=C(NCc1c(Cl)cccc1Cl)c1ccc2nnsc2c1 | > 20 µM (inactive) |
| COc1ccc(NC(=O)C(OC)c2ccccc2)cc1Cl (stereo unspecified) | 12 µM |
| O=C(c1ccc([N+](=O)[O-])cc1)N1CCSC1c1ccccc1Cl (stereo unspecified) | > 20 µM (inactive) |
| COC(C(=O)Nc1ccc(F)cc1F)c1ccccc1 (stereo unspecified) | 0.969 µM |
| COc1ccc(-n2c(C)nc3sc4c(c3c2=O)CCCC4)cc1 | 13.9 µM |
| O=C1NC(=Nc2ccccc2)SC1Cc1cccc(Cl)c1Cl (stereo unspecified) | > 20 µM (inactive) |
| Cc1ccc(C)c(C2=NNC(=NCc3ccccc3)SC2)c1 | 15.2 µM |
| COc1ccc(NC(C)c2ccccc2)cc1 (stereo unspecified) | 14.1 µM |
| O=C(Nc1nccs1)c1cc2c(s1)CCCCC2 | > 20 µM (inactive) |
| Cc1nnsc1C(=O)NNc1c(Cl)cccc1Cl | 5.04 µM |

| Compound | IC50 |
| --- | --- |
| Cc1cnc(NC(=O)C2COc3ccccc3O2)s1 (stereo unspecified) | > 20 µM (inactive) |
| Cc1csc(SCC(=O)NC(=O)NC2CCCC2)n1 | 12.2 µM |
| Cc1ccc(C(=O)NC(C#N)=C(Cl)Cl)cc1 | > 20 µM (inactive) |
| CCn1c(O)c(C=NCc2ccccc2)sc1=S | > 20 µM (inactive) |
| O=C(C1=NNCC1c1ccc(Cl)cc1)C1CO1 (stereo unspecified) | 7.86 µM |
| Clc1ccc(C2=NNC(=NCc3ccccc3)SC2)cc1 | > 20 µM (inactive) |
| O=C1CC(c2ccccc2)C(=O)N1c1cccc(O)c1 (stereo unspecified) | 12.9 µM |
| Cc1ccc(NC(=O)CSCc2ccc(F)cc2)cc1 | > 20 µM (inactive) |
| O=C(Nc1ccc(Cl)cc1)N1N=CCC1c1ccccc1 (stereo unspecified) | 11.6 µM |
| O=C(CSc1nnc2n1CCCN2C(=S)Nc1ccc(Cl)cc1)c1ccccc1 | > 20 µM (inactive) |
| Cc1nc2oc3ccccc3c(=O)c2c(=O)n1Cc1ccccc1 | 14.4 µM |
| O=C(Nc1cccc2ccccc12)N1N=CCC1c1ccccc1 (stereo unspecified) | > 20 µM (inactive) |
| O=C(C1COc2ccccc2O1)N1CCc2ccccc21 (stereo unspecified) | 5.82 µM |
| Clc1ccc2[nH]c3c(c2c1)CCc1cn[nH]c1-3 | 5.28 µM |
| CC(=O)Nc1ccn(Cc2c(F)cccc2Cl)n1 | 3.52 µM |
| Cc1ccc(Cn2cnc3sc4c(c3c2=O)CCC4)c(C)c1 | > 20 µM (inactive) |
| O=C(Cn1cnc2ccc(Cl)cc2c1=O)c1cccs1 | > 20 µM (inactive) |
| COC(C(=O)Nc1ccc(F)cc1)c1ccccc1 (stereo unspecified) | 2.15 µM |
| CC(=O)N(CC1CCCO1)c1nnc(-c2ccccn2)s1 (stereo unspecified) | 9.72 µM |
| O=C(CSc1nnnn1-c1ccccc1)N1N=CCC1c1ccccc1 (stereo unspecified) | 6.27 µM |
